Source: patent US20240109881A1, “Heteroaryl Compounds as Ligand Directed Degraders of IRAK4” (Bristol-Myers Squibb Company, priority 2022, published 2024)

Target: T1, IRAK4 (Homo sapiens, UniProt Q9NWZ3)
T1 construct: endogenous in cells; host or cells: THP-1 cells
T1 sequence (Q9NWZ3 1-460): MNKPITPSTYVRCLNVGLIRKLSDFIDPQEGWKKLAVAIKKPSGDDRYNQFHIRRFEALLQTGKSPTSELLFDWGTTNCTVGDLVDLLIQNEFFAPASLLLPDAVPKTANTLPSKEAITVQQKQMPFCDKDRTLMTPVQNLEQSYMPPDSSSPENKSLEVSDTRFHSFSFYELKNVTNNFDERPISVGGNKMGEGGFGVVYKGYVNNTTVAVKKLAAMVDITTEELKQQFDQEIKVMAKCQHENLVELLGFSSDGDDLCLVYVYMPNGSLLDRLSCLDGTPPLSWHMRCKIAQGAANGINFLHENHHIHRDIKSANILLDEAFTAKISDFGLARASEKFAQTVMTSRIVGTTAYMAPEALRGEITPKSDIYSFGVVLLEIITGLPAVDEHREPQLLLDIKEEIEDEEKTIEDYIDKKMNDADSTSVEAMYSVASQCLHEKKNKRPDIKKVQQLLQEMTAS
Assay: LVL THP1 HTRF (THP1 Homogeneous Time Resolved Fluorescence)
Assay type: cell-based
Details: THP1 cells, 18 h incubation with compound; for DC50: read-out: LVL THP1 HTRF EC50
Method: Cell culture media was prepared in a tissue culture hood in a sterile environment by adding 10% FBS and 1% Penicillin Streptomycin to 500 mL no phenol red RPMI 1640 media. The media was filtered through a Nalgene Bottle Top Filter and stored at 4° C.
For Homogenous Time Resolved Fluorescence (HTRF) assays, a Cisbio HTRF kit was used, which included: Lysis Buffer #1 4×, Blocking Reagent #3 100×, 20× Antibody 1 (Anti-IRAK4 d2), 20× Antibody 2 (Anti-IRAK4 k), and Detection Buffer.
The THP1 plates were prepared by the following method. For each dosing plate, a duplicate for CTG assay was prepared. Two THP-1 T-175 flasks could be used to plate one 384 well plate. The cells were collected from two T-175 flasks into 200 mL centrifuge tubes and spun down at 1200 rpm for 10 min. The supernatant was removed completely and cells were resuspended in 7.5 mL cell culture media. To 5 μL of the cell suspension was added 25 μL of media and 30 μL of Trypan Blue stain. The cells were counted using countess (automated cell counter, Thermo Fisher Scientific) twice and the viability and live cell count was recorded. The actual cell count was […] the live cell count. Based on the count, a cell suspension was prepared in colorless RPMI media for a final concentration of 7.5e6 cells/mL. Using Standard cassette multidrop combi, 20 μL of the 7.5e6 cells/mL cell stock was added to entire 384 well plate but for top half of column 1 (negative control) The multidrop combi was always primed to achieve a steady flow and washed after use with 20 mL de-ionized water followed by 20 mL alcohol. The cells were incubated in 5% CO2 incubator at 37° C.
Dosing was conducted using the following method. To dose assay plates and CTG plate was added 20 nL of compounds in DMSO using Echo (Beckman Coulter), and the plates were incubated at 37° C. for 18 h. The compound plates were spun at 1200 rpm for 1 min before dosing. The compound plate was sealed and properly stored during incubation.
After dosing, an HTRF assay was conducted using the following method. The treatment plates (IRAK4_HTRF) were centrifuged at 600 g for 10 min. Using CyBio Felix, Automated liquid handler (Analytikjena), 13 μL cell culture media was removed. To all columns, 7.5 μL lysis buffer was added, and an additional 7.5 μL of lysis buffer was added to column 1(top half, negative control). The plate was incubated on a shaker at room temperature for 2 h. The plate was spun down at 600 g for 5 min. Custom 20×IRAK4 Antibody obtained from CISBIO Anti-IRAK4-d2 (acceptor Ab) and Anti-IRAK4-K (donor Ab) were diluted to 1× antibody mix Using a multichannel repeater, 4 μL of 1× antibody mix was added to each wellThe plate was spun down at 600 g for 5 min and incubated in the dark at room temperature for 18 h The next day (after 18 hrs), HTRF assay plate was spun down at 600 g for 5 min and read at 665/615 nm using a Envision plate reader.

Compound | LVL THP1 HTRF YMIN [%] | DC50 [nM]
C[C@H](C#N)Nc1cc(-n2ncc3cc(C#N)cnc32)ncc1-n1cc(C2CCC(CCN3CC[C@H]4[C@@H]3CCN4c3ccc(N4CCC(=O)NC4=O)cc3)CC2)nn1 (single isomer, unassigned) [P-328] | 2.5 | 2.5
CC1CN(CC[C@H]2CC[C@H](c3cn(-c4cnc(-n5ncc6cc(C#N)cnc65)cc4N[C@H](C)C#N)nn3)CC2)CCC1c1ccc([C@@]2(F)CCC(=O)NC2=O)cc1 (single isomer, unassigned) [P-331] | −2.2 | 1.8
CC1CN(CC[C@H]2CC[C@H](c3cn(-c4cnc(-n5ncc6cc(C#N)cnc65)cc4N[C@H](C)C#N)nn3)CC2)CCC1c1ccc([C@@]2(F)CCC(=O)NC2=O)cc1 (single isomer, unassigned) [P-332] | 20.7 | 261
CC1CN(CC[C@H]2CC[C@H](c3cn(-c4cnc(-n5ncc6cc(C#N)cnc65)cc4N[C@H](C)C#N)nn3)CC2)CCC1c1ccc([C@@]2(F)CCC(=O)NC2=O)cc1 (single isomer, unassigned) [P-333] | 26.8 | 334
C[C@H](C#N)Nc1cc(-n2ncc3cc(C#N)cnc32)ncc1-n1cc([C@H]2CC[C@H](CCN3CCC(c4ccc([C@@]5(F)CCC(=O)NC5=O)cc4)CC3)CC2)nn1 (single isomer, unassigned) [P-337] | 2.7 | 3.8
C[C@H](C#N)Nc1cc(-n2ncc3cc(C#N)cnc32)ncc1-n1cc([C@H]2CC[C@H](CCN3CCC(c4ccc([C@@]5(F)CCC(=O)NC5=O)cc4)CC3)CC2)nn1 (single isomer, unassigned) [P-338] | 61.2 | 501
C[C@H](C#N)Nc1cc(-n2ncc3cc(C#N)cnc32)ncc1-n1cc([C@H]2CC[C@](O)(CCN3CCN(c4ccc(N5CCC(=O)NC5=O)cc4)CC3)CC2)nn1 (single isomer, unassigned) [P-373] | 72.5 | 1000
CC1CN(CC[C@H]2CC[C@H](c3cn(-c4cnc(-n5ncc6cc(C#N)cnc65)cc4N[C@H](C)C#N)nn3)CC2)CCC1c1ccc([C@@]2(F)CCC(=O)NC2=O)cc1 (single isomer, unassigned) [P-390] | −1.8 | 2.8
C[C@H](C#N)Nc1cc(-n2ncc3cc(C#N)cnc32)ncc1-n1cc([C@H]2CC[C@H](CCN3CCC(c4ccc(N5CCC(=O)NC5=O)cc4)C(F)C3)CC2)nn1 (single isomer, unassigned) [P-400] | 7.8 | 27.9
C[C@H](C#N)Nc1cc(-n2ncc3cc(C#N)cnc32)ncc1-n1cc([C@H]2CC[C@H](CCN3CCC[C@@H]4[C@H]3CCCN4c3ccc([C@@]4(C)CCC(=O)NC4=O)cc3)CC2)nn1 (single isomer, unassigned) [P-414] | 71.4 | 2350
C[C@H](C#N)Nc1cc(-n2ncc3cc(C#N)cnc32)ncc1-n1cc([C@H]2CC[C@H](CCN3CC[C@H]4[C@@H]3CCN4c3ccc([C@@]4(C)CCC(=O)NC4=O)nc3)CC2)nn1 (single isomer, unassigned) [P-415] | 37.5 | 192
C[C@H](C#N)Nc1cc(-n2ncc3cc(C#N)cnc32)ncc1-n1cc([C@H]2CC[C@H](CCN3CCC(c4ccc([C@@]5(C)CCC(=O)NC5=O)cc4)C(F)(F)C3)CC2)nn1 (single isomer, unassigned) [P-417] | 1.8 | 51.4
C[C@H](C#N)Nc1cc(-n2ncc3cc(C#N)cnc32)ncc1-n1cc([C@H]2CC[C@H](CCN3CC[C@H]4[C@@H]3CCN4c3ccc([C@@]4(C)CCC(=O)NC4=O)nc3)CC2)nn1 (single isomer, unassigned) [P-418] | 1.8 | 14.9
C[C@H](C#N)Nc1cc(-n2ncc3cc(C#N)cnc32)ncc1-n1cc([C@H]2CC[C@](O)(CCN3CCN(c4ccc([C@@]5(C)CCC(=O)NC5=O)nc4)CC3)CC2)nn1 (single isomer, unassigned) [P-419] | −0.8 | 31.6
C[C@H](C#N)Nc1cc(-n2ncc3cc(C#N)cnc32)ncc1-n1cc([C@H]2CC[C@H](CCN3CCC(c4ccc(N5CCC(=O)NC5=O)cc4)C(F)(F)C3)CC2)nn1 (single isomer, unassigned) [P-420] | 1.7 | 26.2
C[C@H](C#N)Nc1cc(-n2ncc3cc(C#N)cnc32)ncc1-n1cc([C@H]2CC[C@H](CCN3CCC(F)(c4ccc([C@@]5(C)CCC(=O)NC5=O)cc4)CC3)CC2)nn1 (single isomer, unassigned) [P-424] | 5.3 | 1.9
C[C@H](C#N)Nc1cc(-n2ncc3cc(C#N)cnc32)ncc1-n1cc([C@H]2CC[C@](O)(CCN3CCN(c4ccc([C@@]5(C)CCC(=O)NC5=O)cn4)CC3)CC2)nn1 (single isomer, unassigned) [P-426] | 41.0 | 1000
C[C@H](C#N)Nc1cc(-n2ncc3cc(C#N)cnc32)ncc1C(=O)N[C@H]1CC[C@H](CCN2CC[C@H]3[C@@H]2CCN3c2ccc([C@@]3(C)CCC(=O)NC3=O)cc2)CC1 (single isomer, unassigned) [P-427] | 1.8 | 40.4
C[C@H](C#N)Nc1cc(-n2ncc3cc(C#N)cnc32)ncc1-n1cc([C@H]2CC[C@](O)(CCN3CCN(c4ccc(N5CCC(=O)NC5=O)cc4)CC3)CC2)nn1 (single isomer, unassigned) [P-429] | 5.4 | 59.4
C[C@H](C#N)Nc1cc(-n2ncc3cc(C#N)cnc32)ncc1C(=O)N[C@H]1CC[C@H](CCN2CCC(c3ccc([C@@]4(F)CCC(=O)NC4=O)cc3)CC2)CC1 (single isomer, unassigned) [P-430] | −0.4 | 5.5
C[C@H](C#N)Nc1cc(-n2ncc3cc(C#N)cnc32)ncc1-n1cc([C@H]2CC[C@H](CCN3CC[C@H]4[C@@H]3CCN4c3ccc([C@@]4(C)CCC(=O)NC4=O)cn3)CC2)nn1 (single isomer, unassigned) [P-435] | 52.3 | 123
C[C@H](C#N)Nc1cc(-n2ncc3cc(C#N)c(N)nc32)ncc1-n1cc([C@H]2CC[C@H](CCN3CC[C@H]4[C@@H]3CCN4c3ccc([C@@]4(C)CCC(=O)NC4=O)cc3)CC2)nn1 (single isomer, unassigned) [P-453] | 0.6 | 4.6
C[C@H](C#N)Nc1cc(-n2ncc3cc(C#N)cnc32)ncc1-n1cc([C@H]2CC[C@H](CCN3CC[C@H]4[C@@H]3CCN4c3ccc([C@@]4(C)CCC(=O)NC4=O)cc3)CC2)nn1 (single isomer, unassigned) [P-454] | 1.1 | 13.6
C[C@H](C#N)Nc1cc(-n2ncc3cc(C#N)cnc32)ncc1-n1cc([C@H]2CC[C@H](CCN3CC[C@H]4[C@@H]3CCN4c3ccc(N4CCC(=O)NC4=O)c(F)c3)CC2)nn1 (single isomer, unassigned) [P-461] | 5.4 | 3.7
C[C@H](C#N)Nc1cc(-n2ncc3cc(C#N)cnc32)ncc1-n1cc([C@H]2CC[C@H](CCN3CC[C@H]4[C@@H]3CCN4c3ccc([C@@]4(C)CCC(=O)NC4=O)cc3)CC2)nn1 (single isomer, unassigned) [P-462] | 3.3 | 6.1
